# Assays:
# Assay type in all cases: cell-based
# [1] = target: T1, human TLR7 (Homo sapiens, UniProt Q9NYK1); test: TLR7 inhibition reporter assay (HEK-Blue SEAP reporter); conditions: HEK-Blue cells overexpressing human TLR7; gardiquimod 7.5 μM; 22 hour incubation
# T1 construct: host or cells: HEK-Blue cells
# T1 sequence (Q9NYK1 27-1049): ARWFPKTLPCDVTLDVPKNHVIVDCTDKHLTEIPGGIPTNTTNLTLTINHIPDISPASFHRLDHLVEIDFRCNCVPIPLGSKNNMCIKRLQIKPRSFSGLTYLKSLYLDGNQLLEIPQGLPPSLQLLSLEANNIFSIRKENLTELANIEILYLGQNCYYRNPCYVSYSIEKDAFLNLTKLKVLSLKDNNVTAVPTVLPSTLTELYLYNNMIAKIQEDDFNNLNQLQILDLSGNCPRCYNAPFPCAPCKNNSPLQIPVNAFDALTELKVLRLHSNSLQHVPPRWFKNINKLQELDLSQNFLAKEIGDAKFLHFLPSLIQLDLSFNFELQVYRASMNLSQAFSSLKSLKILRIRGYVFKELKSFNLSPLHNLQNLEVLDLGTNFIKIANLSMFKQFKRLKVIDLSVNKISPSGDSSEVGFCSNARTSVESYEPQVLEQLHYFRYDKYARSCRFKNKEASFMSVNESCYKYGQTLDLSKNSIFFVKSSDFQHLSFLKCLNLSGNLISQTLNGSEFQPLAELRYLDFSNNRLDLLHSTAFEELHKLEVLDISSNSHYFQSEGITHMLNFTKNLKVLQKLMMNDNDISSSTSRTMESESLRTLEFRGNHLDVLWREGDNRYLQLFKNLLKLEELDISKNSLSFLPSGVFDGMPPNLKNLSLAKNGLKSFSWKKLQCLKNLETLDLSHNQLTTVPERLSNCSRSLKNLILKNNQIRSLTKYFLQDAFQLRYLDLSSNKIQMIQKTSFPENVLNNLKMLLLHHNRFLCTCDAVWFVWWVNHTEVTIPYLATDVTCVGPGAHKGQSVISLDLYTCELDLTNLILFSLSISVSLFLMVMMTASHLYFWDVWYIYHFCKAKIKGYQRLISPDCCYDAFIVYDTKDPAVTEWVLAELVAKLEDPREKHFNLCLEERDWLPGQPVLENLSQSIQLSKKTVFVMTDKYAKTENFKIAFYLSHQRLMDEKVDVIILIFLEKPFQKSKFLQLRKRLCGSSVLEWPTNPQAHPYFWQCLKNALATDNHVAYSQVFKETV
# Method in brief: (§1)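 Dose–response from 0.05 nM to 50 μM was run in HEK-Blue human TLR7, TLR8 and TLR9 reporter cells. After 30 min at room temperature with compound, ligand was added (TLR7 gardiquimod 7.5 μM; TLR8 R848 15.9 μM; TLR9 ODN2006 5 nM) and SEAP measured next day, at 22 h.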
# [2] = target: T2, human TLR8 (Homo sapiens, UniProt Q9NR97); test: TLR8 inhibition reporter assay (HEK-Blue SEAP reporter); conditions: HEK-Blue cells overexpressing human TLR8; R848 15.9 μM; 22 hour incubation
# T2 construct: host or cells: HEK-Blue cells
# T2 sequence (Q9NR97 27-1041): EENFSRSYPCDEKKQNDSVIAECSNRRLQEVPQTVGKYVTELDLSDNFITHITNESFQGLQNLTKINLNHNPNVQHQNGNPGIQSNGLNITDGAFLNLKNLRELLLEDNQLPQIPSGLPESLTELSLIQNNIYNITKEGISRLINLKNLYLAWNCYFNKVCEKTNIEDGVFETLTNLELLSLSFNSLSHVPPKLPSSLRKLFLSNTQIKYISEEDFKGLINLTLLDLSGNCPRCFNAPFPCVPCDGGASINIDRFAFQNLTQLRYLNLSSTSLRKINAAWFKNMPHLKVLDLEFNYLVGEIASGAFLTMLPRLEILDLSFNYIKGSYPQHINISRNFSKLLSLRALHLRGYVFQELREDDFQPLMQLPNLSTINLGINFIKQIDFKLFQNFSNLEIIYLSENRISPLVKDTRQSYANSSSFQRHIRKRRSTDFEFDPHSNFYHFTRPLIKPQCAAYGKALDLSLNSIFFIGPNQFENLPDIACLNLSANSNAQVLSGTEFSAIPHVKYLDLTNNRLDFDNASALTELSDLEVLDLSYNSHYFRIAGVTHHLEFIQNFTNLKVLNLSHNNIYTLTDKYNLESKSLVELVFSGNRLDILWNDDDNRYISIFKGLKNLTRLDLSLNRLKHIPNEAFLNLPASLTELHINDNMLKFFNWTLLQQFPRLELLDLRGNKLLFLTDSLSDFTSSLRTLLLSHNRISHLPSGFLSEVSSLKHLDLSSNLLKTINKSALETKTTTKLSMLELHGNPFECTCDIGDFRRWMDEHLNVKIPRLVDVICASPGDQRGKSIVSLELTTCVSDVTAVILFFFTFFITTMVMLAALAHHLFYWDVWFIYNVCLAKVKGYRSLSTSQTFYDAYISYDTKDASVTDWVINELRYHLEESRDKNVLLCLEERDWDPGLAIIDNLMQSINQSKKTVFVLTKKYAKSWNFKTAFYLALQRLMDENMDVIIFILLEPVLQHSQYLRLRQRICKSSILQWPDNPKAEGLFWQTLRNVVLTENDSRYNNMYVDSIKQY
# Experimental: TLR7/8/9 Inhibition Reporter Assays
# HEK-Blue™-cells (Invivogen) overexpressing human TLR7, TLR8 or TLR9 receptors were used for screening inhibitors of these receptors using an inducible SEAP (secreted embryonic alkaline phosphatase) reporter gene under the control of the IFN-β minimal promoter fused to five NF-κB and AP-1-binding sites. Briefly, cells are seeded into Greiner 384 well plates (15000 cells per well for TLR7, 20,000 for TLR8 and 25,000 for TLR9) and then treated with test compounds in DMSO to yield a final dose response concentration range of 0.05 nM-50 μM. After a 30 minute compound pre-treatment at room temperature, the cells are then stimulated with a TLR7 ligand (gardiquimod at a final concentration of 7.5 μM), TLR8 ligand (R848 at a final concentration of 15.9 μM) or TLR9 ligand (ODN2006 at a final concentration of 5 nM) to activate NF-κB and AP-1 which induce the production of SEAP. After a 22 hour incubation at 37° C., 5% CO2, SEAP levels are determined with the addition of HEK-Blue™ Detection reagent (Invivogen), a cell culture medium that allows for detection of SEAP, according to manufacturer's specifications. The percent inhibition is determined as the % reduction in the HEK-Blue signal present in wells treated with agonist plus DMSO alone compared to wells treated with a known inhibitor.
# [3] = target: T3, human TLR9 (Homo sapiens, UniProt Q9NR96); test: TLR9 inhibition reporter assay (HEK-Blue SEAP reporter); conditions: HEK-Blue cells overexpressing human TLR9; ODN2006 5 nM; 22 hour incubation
# T3 construct: host or cells: HEK-Blue cells
# T3 sequence (Q9NR96 26-1032): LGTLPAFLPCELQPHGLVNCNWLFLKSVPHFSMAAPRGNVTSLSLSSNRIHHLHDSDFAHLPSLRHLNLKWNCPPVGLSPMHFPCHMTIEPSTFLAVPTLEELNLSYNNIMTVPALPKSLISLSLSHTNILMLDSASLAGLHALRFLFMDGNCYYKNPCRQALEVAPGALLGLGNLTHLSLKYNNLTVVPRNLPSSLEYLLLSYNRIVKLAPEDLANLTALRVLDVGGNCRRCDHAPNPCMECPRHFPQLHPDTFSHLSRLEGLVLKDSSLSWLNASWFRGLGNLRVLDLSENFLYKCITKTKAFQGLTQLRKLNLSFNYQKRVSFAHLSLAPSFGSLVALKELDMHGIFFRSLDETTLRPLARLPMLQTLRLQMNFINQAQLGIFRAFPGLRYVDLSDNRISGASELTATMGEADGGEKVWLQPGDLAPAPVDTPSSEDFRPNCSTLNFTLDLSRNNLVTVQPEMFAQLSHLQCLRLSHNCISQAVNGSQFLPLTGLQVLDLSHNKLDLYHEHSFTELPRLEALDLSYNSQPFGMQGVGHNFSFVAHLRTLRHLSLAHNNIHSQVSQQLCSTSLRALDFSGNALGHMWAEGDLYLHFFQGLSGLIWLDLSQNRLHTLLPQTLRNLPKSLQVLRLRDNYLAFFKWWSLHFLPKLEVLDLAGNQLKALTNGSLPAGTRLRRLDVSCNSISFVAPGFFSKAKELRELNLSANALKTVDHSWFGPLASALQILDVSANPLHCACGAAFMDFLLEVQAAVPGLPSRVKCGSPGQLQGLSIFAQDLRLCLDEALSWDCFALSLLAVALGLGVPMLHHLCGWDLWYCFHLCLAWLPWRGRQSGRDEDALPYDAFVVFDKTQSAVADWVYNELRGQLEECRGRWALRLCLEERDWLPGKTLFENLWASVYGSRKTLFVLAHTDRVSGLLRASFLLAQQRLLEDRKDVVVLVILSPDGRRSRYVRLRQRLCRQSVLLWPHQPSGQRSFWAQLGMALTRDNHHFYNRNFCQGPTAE
# Method in brief: as §1
IC50 [1],IC50 [2],IC50 [3],Structure (SMILES)
67 nM,81 nM,9210 nM,"COc1ccc(-c2[nH]c3ccc(N4CCC(N(C)C)C4=O)cc3c2C(C)C)cc1OC (stereo not drawn) [Example 4, 1-(2-(3,4-dimethoxyphenyl)-3-isopropyl-1H-indol-5-yl)-3-(dimethylamino)pyrrolidin-2-one]"
1590 nM,603 nM,17300 nM,"Cc1cc(-c2[nH]c3ccc(N4CCC(OCCN(C)C)C4=O)cc3c2C(C)C)ccn1 (stereo not drawn) [Example 7, 3-(2-(dimethylamino)ethoxy)-1-(3-isopropyl-2-(2-methylpyridin-4-yl)-1H-indol-5-yl)pyrrolidin-2-one]"
92 nM,25 nM,> 50000 nM,"Cc1cc(-c2[nH]c3ccc(N4CCNC4=O)cc3c2C(C)C)ccn1 [Example 8, 1-(3-isopropyl-2-(2-methylpyridin-4-yl)-1H-indol-5-yl)imidazolidin-2-one]"
817 nM,70 nM,5660 nM,"CC(C)c1c(-c2ccnc3[nH]ncc23)[nH]c2ccc(NC(=O)[C@@H]3CCNC3)cc12 [Example 9, (R)—N-(3-isopropyl-2-(1H-pyrazolo[3,4-b]pyridin-4-yl)-1H-indol-5-yl)pyrrolidine-3-carboxamide]"
73 nM,96 nM,7720 nM,"CC(C)c1c(-c2ccnc3[nH]ncc23)[nH]c2ccc(NC(=O)[C@H]3CCNC3)cc12 [Example 10, (S)—N-(3-isopropyl-2-(1H-pyrazolo[3,4-b]pyridin-4-yl)-1H-indol-5-yl)pyrrolidine-3-carboxamide]"
290 nM,17 nM,8600 nM,"COc1ccc(-c2[nH]c3ccc(NC(=O)CN)cc3c2C(C)C)cc1OC [Example 11, 2-amino-N-(2-(3,4-dimethoxyphenyl)-3-isopropyl-1H-indol-5-yl)acetamide]"
202 nM,37 nM,5610 nM,"COc1ccc(-c2[nH]c3ccc(NC(=O)CCCN)cc3c2C(C)C)cc1OC [Example 12, 4-amino-N-(2-(3,4-dimethoxyphenyl)-3-isopropyl-1H-indol-5-yl)butanamide]"
51 nM,8.4 nM,550 nM,"COc1ccc(-c2[nH]c3ccc(NC(=O)C4CCNC4)cc3c2C(C)C)cc1OC (stereo not drawn) [Example 13, N-(2-(3,4-dimethoxyphenyl)-3-isopropyl-1H-indol-5-yl) pyrrolidine-3-carboxamide]"
347 nM,67 nM,7830 nM,"CCC[C@@H](N)C(=O)Nc1ccc2[nH]c(-c3ccc(OC)c(OC)c3)c(C(C)C)c2c1 [Example 14, (R)-2-amino-N-(2-(3,4-dimethoxyphenyl)-3-isopropyl-1H-indol-5-yl)pentanamide]"
25 nM,3.4 nM,7460 nM,"COc1ccc(-c2[nH]c3ccc(NC(=O)C4CNCCO4)cc3c2C(C)C)cc1OC (stereo not drawn) [Example 15, N-(2-(3,4-dimethoxyphenyl)-3-isopropyl-1H-indol-5-yl)morpholine-2-carboxamide]"
2070 nM,47 nM,5760 nM,"COc1ccc(-c2[nH]c3ccc(NC(=O)[C@H](N)CC(C)C)cc3c2C(C)C)cc1OC [Example 16, (R)-2-amino-N-(2-(3,4-dimethoxyphenyl)-3-isopropyl-1H-indol-5-yl)-4-methylpentanamide]"
299 nM,72 nM,6000 nM,"CC[C@@H](C)[C@@H](N)C(=O)Nc1ccc2[nH]c(-c3ccc(OC)c(OC)c3)c(C(C)C)c2c1 [Example 17, (2R,3R)-2-amino-N-(2-(3,4-dimethoxyphenyl)-3-isopropyl-1H-indol-5-yl)-3-methylpentanamide]"
125 nM,106 nM,> 50000 nM,"COc1ccc(-c2[nH]c3ccc(NC(=O)[C@@H](N)CCCN)cc3c2C(C)C)cc1OC [Example 20, (S)-2,5-diamino-N-(2-(3,4-dimethoxyphenyl)-3-isopropyl-1H-indol-5-yl)pentanamide]"

# Source: patent US11306092B2, “Amino indole compounds useful as TLR inhibitors” (BRISTOL-MYERS SQUIBB COMPANY, priority 2017, dated 2022)
